Measurements reported in article PMC467089, “Click estradiol dimers with novel aromatic bridging units: synthesis and anticancer evaluation” (Journal of Enzyme Inhibition and Medicinal Chemistry, 2024).

Legend:
CCRF-CEM lymphoblasts [1] = experiment: Cell cycle analysis by flow cytometry (propidium iodide); assay type: cell-based, human
Protocol: (§1) To further characterise the mode of action of studied compounds, we analysed the cell cycle profile of CCRF-CEM cells treated with compounds for 24 h. […] The compounds ED1–ED9 and ED12 induced arrest in G2/M phase of the cell cycle (Figure 2(A)). To differentiate between G2 block and mitotic arrest, we used phospho-histone H3 (Ser10) mitotic marker (Figure 2(B)). […] Generally, dimers induced a dose-dependent increase of sub G1 cell population with fragmented DNA except for ED2 and ED4 (Figure 2(C)). […] To assess the proliferation of treated cells, they were subjected to 5-bromo-2-deoxyuridine (BrDU) labelling. […] Analogously, changes in 5-bromouridine (BrU) incorporation were examined to monitor overall RNA synthesis.
(§2) Treated CCRF-CEM cells were harvested, washed with ice-cold phosphate-buffered saline (PBS), fixed in cold 70% ethanol and stored at −20 °C. Prior to analysis, fixed cells were permeabilised with 0.25% Triton X-100 in PBS for 15 min, blocked in 1% bovine serum, and incubated with anti-phospho-Histone H3 (Ser^10) antibody (Merck Millipore, Burlington, MA). Subsequently, the cells were treated with 50 μg/mL RNAse, stained with propidium iodide and analysed by FACSCalibur (Becton Dickinson, Franklin Lakes, NJ) flow cytometer at 488 nm. Cell cycle distribution (G1, S, and G2/M) was analysed using ModFitLT software (Verity, Topsham, ME), and reflects only viable population prior to the fixing procedure. Particles with lower propidium iodide content than G1 phase cells were classified as non-viable cells with fragmented DNA. Flow cytometry data visualisation was performed using OriginPro 2018b (b9.5.5.409) software (OriginLab Corporation, Northampton, MA)[10].

[2] = test system: CCRF-CEM (childhood T-cell acute lymphoblastic leukaemia); experiment: MTS cytotoxicity assay, CCRF-CEM; assay type: cell-based; conditions: Homo sapiens, 72 h, read-out: IC50 cytotoxic activity CCRF-CEM
Protocol: (§3) The p53 deficient variant, HCT116p53−/−, was purchased from Horizon Discovery (Cambridge, UK). The daunorubicin-resistant CCRF-CEM cell line CEM-DNR bulk and paclitaxel-resistant K562-TAX sublines were developed in-house by exposing parental cell lines to escalating concentrations of daunorubicin and paclitaxel, respectively. Cells were maintained in the recommended culture medium (Sigma-Aldrich, St. Louis, MO) supplemented with 10% foetal calf serum, 100 U/mL penicillin, and 100 μg/mL streptomycin. The HUVEC line was obtained from PromoCell (Heidelberg, Germany). The cells were cultured in endothelial cell growth medium with SupplementMix for endothelial cells (PromoCell, Heidelberg, Germany). The incubation conditions were a humidified atmosphere of 95% air and 5% CO2 at 37 °C[10]. Cells were seeded in 384-well plates and after overnight incubation treated with compounds. All tested compounds were dissolved in 100% DMSO, and fourfold serial dilutions were performed using an Echo550 liquid handler (Labcyte, San Jose, CA). The experiments were performed in technical duplicates and three biological replicates. Cells were incubated with compounds for 72 h and thereafter 5 μL of MTS reagent was added to each well.

CCRF-CEM lymphoblasts [3] = experiment: BrU incorporation analysis (RNA synthesis); assay type: cell-based, human
Protocol: as §1
Prior to the trypsinisation, cells were treated with 1 mM BrU for 30 min. Subsequently, the cells were fixed in 1% paraformaldehyde with 0.05% of NP-40 for 15 min at RT and stored overnight at 4 °C. Fixed cells were washed with 1% glycine in PBS and stained with primary anti-BrdU antibody clone MoBu-1 crossreacting with BrU (Exbio, Vestec, Czech Republic) for 30 min at RT, washed with PBS and labelled with secondary anti-mouse-FITC antibody (Sigma-Aldrich, St. Louis, MO). Following 1-h incubation in 1% paraformaldehyde containing 0.05% NP-40, cells were stained with propidium iodide (0.1 mg/mL) and treated with RNase A (0.5 mg/mL) for 1 h at RT. The percentage of BrU positive cells was quantified using CellQuest software.

[4] = test system: A549 (lung adenocarcinoma); experiment: MTS cytotoxicity assay, A549; assay type: cell-based, human; conditions: Homo sapiens, A549, 72 h, read-out: IC50 cytotoxic activity A549
Protocol: as §3

[5] = MTS cytotoxicity assay, BJ; assay type: cell-based; conditions: human
Protocol: as §3

[6] = test system: HCT116p53−/− (p53 gene null variant of HCT116); experiment: MTS cytotoxicity assay, HCT116p53−/−; assay type: cell-based; conditions: Homo sapiens, HCT-116, 72 h, read-out: IC50 cytotoxic activity HCT116p53-
Protocol: as §3

CCRF-CEM lymphoblasts [7] = experiment: BrDU incorporation analysis (DNA synthesis); assay type: cell-based, human
Protocol: as §1
Thirty minutes before harvesting, cells were pulse-labelled with 10 μM BrDU. After overnight fixation in ice-cold 70% ethanol, cells were resuspended in 2 M HCl for 30 min at room temperature (RT), then washed with 0.1 M Na2B4O7 and blocked with PBS containing 0.5% Tween-20 and 1% BSA. BrDU incorporation was analysed using anti-BrdU antibody clone MoBu-1 (Exbio, Vestec, Czech Republic) and a secondary anti-mouse-FITC antibody (Sigma-Aldrich, St. Louis, MO). Cells were washed with PBS and stained with 0.1 mg/mL propidium iodide and 0.5 mg/mL RNase A for 1 h at RT and analysed by flow cytometry using a 488 nm single beam laser (FACSCalibur, Becton Dickinson, Franklin Lakes, NJ). The percentage of cells with incorporated BrDU was analysed using CellQuest software.

[8] = test system: K562 (chronic myelogenous leukaemia); experiment: MTS cytotoxicity assay, K562; assay type: cell-based; conditions: Homo sapiens, K562, 72 h, read-out: IC50 cytotoxic activity K562
Protocol: as §3

[9] = MTS cytotoxicity assay, MRC-5; assay type: cell-based; conditions: human
Protocol: as §3

[10] = test system: HCT116 (colorectal adenocarcinoma); experiment: MTS cytotoxicity assay, HCT116; assay type: cell-based; conditions: Homo sapiens, HCT-116, 72 h, read-out: IC50 cytotoxic activity HCT116
Protocol: as §3

[11] = test system: K562-TAX (paclitaxel-resistant variant of K562); experiment: MTS cytotoxicity assay, K562-TAX; assay type: cell-based, human; conditions: for IC50: Homo sapiens, K562-Tax, 72 h, read-out: IC50 cytotoxic activity K562-TAX
Protocol: as §3

[12] = MTS cytotoxicity assay, HUVEC; assay type: cell-based; conditions: human
Protocol: as §3

U2OS (osteosarcoma) = experiment: MTS cytotoxicity assay, U2OS; assay type: cell-based, human; conditions: Homo sapiens, U2OS, 72 h, read-out: IC50 cytotoxic activity U2OS
Protocol: as §3

CCRF-CEM lymphoblasts [13] = experiment: Phospho-histone H3 (Ser10) mitotic marker, flow cytometry; assay type: cell-based, human
Protocol: as §1, §2

[14] = test system: CEM-DNR (daunorubicin resistant variant of CCRF-CEM); experiment: MTS cytotoxicity assay, CEM-DNR; assay type: cell-based, human; conditions: Homo sapiens, CEM-DNR, 72 h, read-out: IC50 cytotoxic activity CEM-DNR
Protocol: as §3

porcine brain tubulin = target: T1, porcine brain tubulin (Sus scrofa, UniProt P02550+P02554); experiment: Tubulin polymerisation assay; assay type: biochemical; conditions: 10 μmol/L, Vmax relative to DMSO
T1 construct: purchased Cytoskeleton, Denver, CO; host or cells: porcine brain (tissue-purified)
T1 sequence (P02550 whole entry): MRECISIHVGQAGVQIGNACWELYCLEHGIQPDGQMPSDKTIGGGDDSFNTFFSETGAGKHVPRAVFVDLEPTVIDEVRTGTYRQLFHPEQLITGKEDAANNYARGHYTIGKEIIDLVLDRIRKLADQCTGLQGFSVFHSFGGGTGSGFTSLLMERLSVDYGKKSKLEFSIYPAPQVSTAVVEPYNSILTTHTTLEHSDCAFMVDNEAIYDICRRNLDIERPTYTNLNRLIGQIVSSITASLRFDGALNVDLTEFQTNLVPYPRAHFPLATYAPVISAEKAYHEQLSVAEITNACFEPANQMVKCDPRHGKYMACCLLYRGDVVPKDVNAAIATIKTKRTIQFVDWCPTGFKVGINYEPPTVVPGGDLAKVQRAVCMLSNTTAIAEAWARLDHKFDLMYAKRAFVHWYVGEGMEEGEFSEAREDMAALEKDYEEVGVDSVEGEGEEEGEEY
T1 sequence (P02554 whole entry): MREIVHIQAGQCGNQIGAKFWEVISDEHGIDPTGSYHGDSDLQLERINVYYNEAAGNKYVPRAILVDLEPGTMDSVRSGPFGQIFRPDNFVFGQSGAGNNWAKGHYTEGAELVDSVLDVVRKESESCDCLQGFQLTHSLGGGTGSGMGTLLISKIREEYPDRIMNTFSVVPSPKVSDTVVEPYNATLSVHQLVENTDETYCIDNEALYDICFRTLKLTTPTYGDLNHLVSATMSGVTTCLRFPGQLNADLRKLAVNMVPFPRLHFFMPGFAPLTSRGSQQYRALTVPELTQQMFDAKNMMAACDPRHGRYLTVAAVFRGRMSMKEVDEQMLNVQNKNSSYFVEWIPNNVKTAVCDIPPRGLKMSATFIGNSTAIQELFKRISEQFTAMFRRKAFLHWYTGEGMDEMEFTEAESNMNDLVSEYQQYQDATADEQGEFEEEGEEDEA
Protocol: Tubulin polymerisation assay kit (Cytoskeleton, Denver, CO) was used according to the manufacturer’s instructions. Polymerisation of porcine brain tubulin (>99% purity) was measured using an EnVision Multilabel Plate Reader (PerkinElmer, Waltham, MA) at 37 °C, in the presence of either 10 μmol/L test compounds or DMSO. Maximum polymerisation velocity (Vmax) was calculated from the polymerisation curves. Data visualisation was performed in OriginPro 2018b (b9.5.5.409) software (OriginLab Corporation, Northampton, MA)[10].

In the case of C[C@]12CC[C@@H]3c4ccc(O)cc4CC[C@H]3[C@@H]1CC[C@@]2(O)c1cn(Cc2cccc(Cn3cc([C@]4(O)CC[C@H]5[C@@H]6CCc7cc(O)ccc7[C@H]6CC[C@@]54C)nn3)c2)nn1 [ED1, (17β,17′β)-17,17′-[Benzene-1,3-diylbis(methanediyl-1H-1,2,3-triazole-1,4-diyl)]bisestra-1,3,5(10)-triene-3,17-diol], the “<G1 (sub-G1, fragmented DNA), % of positive cells” value (shortened to “<G1 (sub-G1, fragmented DNA), %”) (CCRF-CEM lymphoblasts [1]; 1×IC50, 24 h) is reported as 55.53%, the “>G2/M (polyploidy), % of positive cells” value (CCRF-CEM lymphoblasts [1]; 1×IC50, 24 h) is reported as 10.7% and the “G0/G1, % of positive cells” value (CCRF-CEM lymphoblasts [1]; 1×IC50, 24 h) is reported as 0.28%. For the same compound, the “G2/M, % of positive cells” value (CCRF-CEM lymphoblasts [1]; 1×IC50, 24 h) was 74.70%, the “S, % of positive cells” value (CCRF-CEM lymphoblasts [1]; 1×IC50, 24 h) was 25.01% and the “<G1 (sub-G1, fragmented DNA), %” value (CCRF-CEM lymphoblasts [1]; 5×IC50, 24 h) was 64.75%. For the same compound, the “>G2/M (polyploidy), % of positive cells” value (CCRF-CEM lymphoblasts [1]; 5×IC50, 24 h) was 17.65%, the “G0/G1, % of positive cells” value (CCRF-CEM lymphoblasts [1]; 5×IC50, 24 h) was 0.27% and the “G2/M, % of positive cells” value (CCRF-CEM lymphoblasts [1]; 5×IC50, 24 h) was 75.07%. The “S, % of positive cells” value (CCRF-CEM lymphoblasts [1]; 5×IC50, 24 h) was 24.67%, the IC50 [2] was 1600 ± 270 nM and the “BrU, % of positive cells” value (CCRF-CEM lymphoblasts [3]; 1×IC50, 24 h) was 48.16%. For the same compound, the “BrU, % of positive cells” value (CCRF-CEM lymphoblasts [3]; 5×IC50, 24 h) was 31.42%, the IC50 [4] was 1680 ± 200 nM and the IC50 at 72 h [5] was > 50000 nM. The IC50 [6] was 1500 ± 320 nM, the “BrDU, % of positive cells” value (CCRF-CEM lymphoblasts [7]; 1×IC50, 24 h) was 38.15% and the “BrDU, % of positive cells” value (CCRF-CEM lymphoblasts [7]; 5×IC50, 24 h) was 6.70%. For the same compound, the IC50 [8] was 1630 ± 120 nM, the IC50 at 72 h [9] was > 50000 nM and the IC50 [10] was 1410 ± 300 nM. For the same compound, the “IC50 cytotoxic activity K562-TAX” value [11] was “sensitive”, the IC50 [11] was 1580 ± 160 nM and the IC50 at 72 h [12] was 13.5 ± 2 nM. The IC50 (U2OS (osteosarcoma)) was 1950 ± 440 nM, the “pH3Ser10, % of positive cells” value (CCRF-CEM lymphoblasts [13]; 1×IC50, 24 h) was 61.09% and the “pH3Ser10, % of positive cells” value (CCRF-CEM lymphoblasts [13]; 5×IC50, 24 h) was 64.45%. For the same compound, the IC50 [14] was > 50000 nM and the “inhibitory activity against tubulin polymerisation (in words)” value (porcine brain tubulin) was “comparable or better inhibitory activity”.

With C[C@]12CC[C@@H]3c4ccc(O)cc4CC[C@H]3[C@@H]1CC[C@@]2(O)c1cn(Cc2cc(O)cc(Cn3cc([C@]4(O)CC[C@H]5[C@@H]6CCc7cc(O)ccc7[C@H]6CC[C@@]54C)nn3)c2)nn1 [ED2, (17β,17′β)-17,17′-[(5-Hydroxybenzene-1,3-diyl)bis(methanediyl-1H-1,2,3-triazole-1,4-diyl)]bisestra-1,3,5(10)-triene-3,17-diol] the “<G1 (sub-G1, fragmented DNA), %” value (CCRF-CEM lymphoblasts [1]; 1×IC50, 24 h) was 28.21%, the “>G2/M (polyploidy), % of positive cells” value (CCRF-CEM lymphoblasts [1]; 1×IC50, 24 h) was 8.33% and the “G0/G1, % of positive cells” value (CCRF-CEM lymphoblasts [1]; 1×IC50, 24 h) was 2.32%. For the same compound, the “G2/M, % of positive cells” value (CCRF-CEM lymphoblasts [1]; 1×IC50, 24 h) was 64.90%, the “S, % of positive cells” value (CCRF-CEM lymphoblasts [1]; 1×IC50, 24 h) was 32.78% and the “<G1 (sub-G1, fragmented DNA), %” value (CCRF-CEM lymphoblasts [1]; 5×IC50, 24 h) was 19.20%. The “>G2/M (polyploidy), % of positive cells” value (CCRF-CEM lymphoblasts [1]; 5×IC50, 24 h) was 8.13%, the “G0/G1, % of positive cells” value (CCRF-CEM lymphoblasts [1]; 5×IC50, 24 h) was 0.47% and the “G2/M, % of positive cells” value (CCRF-CEM lymphoblasts [1]; 5×IC50, 24 h) was 58.40%. The “S, % of positive cells” value (CCRF-CEM lymphoblasts [1]; 5×IC50, 24 h) was 41.13%, the IC50 [2] was 1700 ± 190 nM and the “BrU, % of positive cells” value (CCRF-CEM lymphoblasts [3]; 1×IC50, 24 h) was 41.11%. For the same compound, the “BrU, % of positive cells” value (CCRF-CEM lymphoblasts [3]; 5×IC50, 24 h) was 41.82%, the IC50 [4] was 6690 ± 790 nM and the IC50 at 72 h [5] was > 50000 nM. The IC50 [6] was 4260 ± 940 nM, the “BrDU, % of positive cells” value (CCRF-CEM lymphoblasts [7]; 1×IC50, 24 h) was 15.09% and the “BrDU, % of positive cells” value (CCRF-CEM lymphoblasts [7]; 5×IC50, 24 h) was 21.14%. For the same compound, the IC50 [8] was 1480 ± 190 nM, the IC50 at 72 h [9] was > 50000 nM and the IC50 [10] was 3570 ± 660 nM. The IC50 [11] was > 50000 nM, the IC50 at 72 h [12] was < 12.2 nM and the IC50 (U2OS (osteosarcoma)) was > 50000 nM. For the same compound, the “pH3Ser10, % of positive cells” value (CCRF-CEM lymphoblasts [13]; 1×IC50, 24 h) was 52.73%, the “pH3Ser10, % of positive cells” value (CCRF-CEM lymphoblasts [13]; 5×IC50, 24 h) was 47.87% and the IC50 [14] was > 50000 nM. The “inhibitory activity against tubulin polymerisation (in words)” value (porcine brain tubulin) was “weak in vitro inhibition”.
